Laboratory results: article PMC6081452, “Downstream Products are Potent Inhibitors of the Heparan Sulfate 2-O-Sulfotransferase” (Scientific Reports, 2018)

What follows are substances tested against T1, non-glyc-HS2ST (non-glycosylated chicken HS2ST), WT (Gallus gallus, UniProt Q76KB1) (assay: BLI equilibrium binding, non-glyc-HS2ST WT). Conditions: BLI saturation binding curves, biotin-PEG4-linked hexasaccharide on sensor, n = 3, ± standard error of fit; — = response too weak to fit.
T1 construct: made in house; host or cells: E. coli Origami B (DE3)
T1 sequence (Q76KB1 69-356 limits assumed): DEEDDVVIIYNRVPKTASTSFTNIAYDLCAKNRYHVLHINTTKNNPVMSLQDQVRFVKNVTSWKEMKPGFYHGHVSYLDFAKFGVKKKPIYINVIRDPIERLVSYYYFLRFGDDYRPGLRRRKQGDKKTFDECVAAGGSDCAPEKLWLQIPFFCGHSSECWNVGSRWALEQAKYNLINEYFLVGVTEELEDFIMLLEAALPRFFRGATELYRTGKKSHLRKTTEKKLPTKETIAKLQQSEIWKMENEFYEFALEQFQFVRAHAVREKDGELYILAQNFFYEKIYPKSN
Source text: HS-protein binding studies often utilize biologically-derived oligosaccharides of heterogeneous length and sulfation[34],[35]; however, the synthesis of oligosaccharides with defined length and specific sulfation patterns has recently become possible. We employed biolayer interferometry (BLI) to determine equilibrium surface binding constants (KD) for HS2ST with synthetic HS hexasaccharides (Fig. 1 and Supplementary Table 1). The HS compounds were attached to the BLI biosensor surface to conserve sample and to ensure a significant signal upon protein binding. The HS compounds contained a biotinylated PEG4 linker at the reducing terminus, enhancing the likelihood of a consistent presentation of the linear glycan on the sensor surface, in contrast to immobilizations via intra-chain modifications.
Binding constants were collected for two isoforms of the enzyme; a glycosylated human variant (glyc-HS2ST) expressed in mammalian cell lines, and a highly homologous (96% identity) non-glycosylated chicken isoform expressed in E. coli (non-glyc-HS2ST). […] Thus, the enhanced ligand affinity seen in HS2ST was unexpected and may relate to the specific position of the glycosylation site (N108)[41].
The chicken HS2ST-Maltose Binding Protein (MBP) fusion protein was expressed and purified according to previous studies. The fusion protein was transformed into E. coli Origami B (DE3) cells, cultured at 37 °C until OD600 reached 0.5, then induced with isopropyl-β-D-thiogalactopyranoside and allowed to grow overnight at 20 °C. Cells were sonicated, followed by a two-step purification procedure. Whole-cell supernatant was passed through an amylose column with Tris buffer (25 mM Tris, 500 mM NaCl, pH 7.5). An elution buffer consisted of Tris Buffer with 40 mM Maltose. The amylose column eluent was concentrated and loaded on a Superdex 200 Increase 10/300 GL with PBS buffer (10 mM sodium phosphate, 150 mM NaCl, pH 7.8) to separate trimeric protein from aggregate and independent MBP (Supplementary Fig. 4). All reported mutations formed homotrimeric complexes according to the SEC profiles, including the negative control (NC = R189A/R80E/R184E). Protein concentration was assessed via UV at 280 nm (MW of trimer ~210 KDa, extinction coefficient ~119,000 M^−1 cm^−1 according to ExPASy ProtParam webtool[56]). The trimeric protein preparation was adjusted to 5% glycerol and stored at −20 °C until use. Additional non-glyc-HS2ST constructs were created with the Q5® Mutagenesis kit (New England Biolabs Inc.; cat. # E0554S) and sequenced at the Georgia Genomics Facility at the University of Georgia.
The Octet® RED96 system (FortéBio Inc.) was employed to detect the affinity of the enzymes for specific HS targets. Due to the small size of the glycan and the deep HS2ST binding cavity, the glycan and protein were treated as ligand and analyte, respectively. Varyingly sulfated HS fragments conjugated to biotin linkers were purchased from Glycan Therapeutics Inc. with purities greater than 93% according to HPLC (sequences located in Supplementary Table 1). The glycans were immobilized onto streptavidin (SA) labeled biosensors (FortéBio; cat. #18–5019) at 0.5 µg/mL. Experiments were performed at 25 °C in PBS Buffer (10 mM sodium phosphate, 150 mM NaCl, pH 7.8) with a final concentration of 1X Pall Kinetics buffer (FortéBio Inc; cat. #18–1092). Fresh biosensors and protein samples were used for each measurement (no regeneration step). […]

Kd | Substance
0.072 ± 0.008 µM | GlcNS6S-GlcA-GlcNS6S-GlcA-GlcNS6S-GlcA~ [Compound 5]
> 0.5 µM | GlcNS-GlcA-GlcNS-IdoA2S-GlcNS-GlcA~ [Compound 2]
0.013 ± 0.003 µM | GlcNS6S-GlcA-GlcNS3S6S-IdoA2S-GlcNS6S-GlcA~ [Compound 4]
0.042 ± 0.005 µM | GlcNS6S-GlcA-GlcNS6S-IdoA2S-GlcNS6S-GlcA~ [Compound 3]
